From patent publication US10167262B2, “Herbicidal substituted 3-arylpyrazoles” (FMC CORPORATION, priority 2014, dated 2019)

Tests used:
Assay type in all cases: in vivo
[1] = tested on: giant foxtail (Setaria faberii); assay: Test A pre-/postemergence greenhouse herbicide test, visual injury rating 0-100
In short: (§1)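 Each species was treated both before emergence, via soil spray onto a loam–sand blend, and after emergence at the one- to two-leaf stage. Plants stayed in the greenhouse around 10 days before visual injury assessment.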

[2] = tested on: large (Lg) crabgrass (Digitaria sanguinalis); assay: as above
In short: as §1

[3] = tested on: morningglory (Ipomoea spp.); assay: as above
In short: as §1

[4] = tested on: corn (Zea mays); assay: as above
In short: as §1

[5] = tested on: barnyardgrass (Echinochloa crus-galli); assay: as above
In short: as §1

[6] = tested on: velvetleaf (Abutilon theophrasti); assay: as above
In short: as §1

[7] = tested on: pigweed (Amaranthus retroflexus); assay: as above
In short: as §1

[8] = tested on: wheat (Triticum aestivum); assay: as above
In short: as §1

[9] = tested on: barnyardgrass (Echinochloa crus-galli); assay: Test B flooded paddy test, plant response rating 0-100; settings: Flood, 250 g ai/ha; scale 0 to 100 (0 no effect, 100 complete control); 13 to 15 days
In short: (§2)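 Greenhouse pots flooded to 3 cm above soil at time of treatment received compound via the water, which stayed at that level.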

[10] = tested on: rice (Oryza sativa); assay: as above; settings: Flood, 250 g ai/ha; scale 0 to 100 (0 no effect, 100 complete control); 13 to 15 days
In short: as §2

[11] = tested on: ducksalad (Heteranthera limosa); assay: as above; settings: Flood, 250 g ai/ha; scale 0 to 100 (0 no effect, 100 complete control); 13 to 15 days
In short: as §2

[12] = tested on: sedge, umbrella (small-flower umbrella sedge, Cyperus difformis); assay: as above; settings: Flood, 250 g ai/ha; scale 0 to 100 (0 no effect, 100 complete control); 13 to 15 days
In short: as §2

O=C(c1ccccc1)c1cn(CC2CC2)nc1-c1cc(Cl)cc(Cl)c1 [Compound 41]
Plant response rating (0 to 100 scale), Foxtail, Giant ([1]; Postemergence, 125 g ai/ha): 0
Plant response rating (0 to 100 scale), Foxtail, Giant ([1]; Postemergence, 500 g ai/ha): 0
Foxtail, Giant plant response rating (0 = no effect, 100 = complete control) ([1]; Preemergence, 125 g ai/ha): 0
Plant response rating (0 to 100 scale), Foxtail, Giant ([1]; Preemergence, 500 g ai/ha): 0
Plant response rating (0 to 100 scale), Crabgrass, Large ([2]; Postemergence, 125 g ai/ha): 0
Plant response rating (0 to 100 scale), Crabgrass, Large ([2]; Postemergence, 500 g ai/ha): 0
Crabgrass, Large plant response rating (0 = no effect, 100 = complete control) ([2]; Preemergence, 125 g ai/ha): 0
Plant response rating (0 to 100 scale), Crabgrass, Large ([2]; Preemergence, 500 g ai/ha): 0
Plant response rating (0 to 100 scale), Morningglory ([3]; Postemergence, 125 g ai/ha): 0
Plant response rating (0 to 100 scale), Morningglory ([3]; Postemergence, 500 g ai/ha): 0
Morningglory plant response rating (0 = no effect, 100 = complete control) ([3]; Preemergence, 125 g ai/ha): 0
Plant response rating (0 to 100 scale), Morningglory ([3]; Preemergence, 500 g ai/ha): 0
Plant response rating (0 to 100 scale), Corn ([4]; Postemergence, 125 g ai/ha): 0
Plant response rating (0 to 100 scale), Corn ([4]; Postemergence, 500 g ai/ha): 0
Corn plant response rating (0 = no effect, 100 = complete control) ([4]; Preemergence, 125 g ai/ha): 0
Plant response rating (0 to 100 scale), Corn ([4]; Preemergence, 500 g ai/ha): 0
Plant response rating (0 to 100 scale), Barnyardgrass ([5]; Postemergence, 125 g ai/ha): 0
Plant response rating (0 to 100 scale), Barnyardgrass ([5]; Postemergence, 500 g ai/ha): 0
Barnyardgrass plant response rating (0 = no effect, 100 = complete control) ([5]; Preemergence, 125 g ai/ha): 0
Plant response rating (0 to 100 scale), Barnyardgrass ([5]; Preemergence, 500 g ai/ha): 0
Plant response rating (0 to 100 scale), Velvetleaf ([6]; Postemergence, 125 g ai/ha): 40
Plant response rating (0 to 100 scale), Velvetleaf ([6]; Postemergence, 500 g ai/ha): 80
Velvetleaf plant response rating (0 = no effect, 100 = complete control) ([6]; Preemergence, 125 g ai/ha): 0
Plant response rating (0 to 100 scale), Velvetleaf ([6]; Preemergence, 500 g ai/ha): 60
Plant response rating (0 to 100 scale), Pigweed ([7]; Postemergence, 125 g ai/ha): 30
Plant response rating (0 to 100 scale), Pigweed ([7]; Postemergence, 500 g ai/ha): 60
Pigweed plant response rating (0 = no effect, 100 = complete control) ([7]; Preemergence, 125 g ai/ha): 0
Plant response rating (0 to 100 scale), Pigweed ([7]; Preemergence, 500 g ai/ha): 60
Plant response rating (0 to 100 scale), Wheat ([8]; Postemergence, 125 g ai/ha): 0
Plant response rating (0 to 100 scale), Wheat ([8]; Postemergence, 500 g ai/ha): 0
Wheat plant response rating (0 = no effect, 100 = complete control) ([8]; Preemergence, 125 g ai/ha): 0
Plant response rating (0 to 100 scale), Wheat ([8]; Preemergence, 500 g ai/ha): 0
Plant response rating, Barnyardgrass [9]: 0
Plant response rating, Rice [10]: 0
Plant response rating, Ducksalad [11]: 0
Plant response rating, Sedge, Umbrella [12]: 30

Fc1cc(Cl)cc(-c2n[nH]cc2C(=NN2CCCC2)c2ccccc2)c1 [Compound 42]
Plant response rating (0 to 100 scale), Foxtail, Giant ([1]; Postemergence, 1000 g ai/ha): 0
Plant response rating (0 to 100 scale), Foxtail, Giant ([1]; Preemergence, 1000 g ai/ha): 0
Plant response rating (0 to 100 scale), Crabgrass, Large ([2]; Postemergence, 1000 g ai/ha): 0
Plant response rating (0 to 100 scale), Crabgrass, Large ([2]; Preemergence, 1000 g ai/ha): 0
Plant response rating (0 to 100 scale), Morningglory ([3]; Postemergence, 1000 g ai/ha): 0
Plant response rating (0 to 100 scale), Morningglory ([3]; Preemergence, 1000 g ai/ha): 0
Plant response rating (0 to 100 scale), Corn ([4]; Postemergence, 1000 g ai/ha): 0
Plant response rating (0 to 100 scale), Corn ([4]; Preemergence, 1000 g ai/ha): 0
Plant response rating (0 to 100 scale), Barnyardgrass ([5]; Postemergence, 1000 g ai/ha): 0
Plant response rating (0 to 100 scale), Barnyardgrass ([5]; Preemergence, 1000 g ai/ha): 0
Plant response rating (0 to 100 scale), Velvetleaf ([6]; Postemergence, 1000 g ai/ha): 100
Plant response rating (0 to 100 scale), Velvetleaf ([6]; Preemergence, 1000 g ai/ha): 100
Plant response rating (0 to 100 scale), Pigweed ([7]; Postemergence, 1000 g ai/ha): 100
Plant response rating (0 to 100 scale), Pigweed ([7]; Preemergence, 1000 g ai/ha): 100
Plant response rating (0 to 100 scale), Wheat ([8]; Postemergence, 1000 g ai/ha): 0
Plant response rating (0 to 100 scale), Wheat ([8]; Preemergence, 1000 g ai/ha): 0
Plant response rating, Barnyardgrass [9]: 0
Plant response rating, Rice [10]: 0
Plant response rating, Ducksalad [11]: 0
Plant response rating, Sedge, Umbrella [12]: 0
